Test [1] concerns Amaranthus caudatus cotyledon/hypocotyl explants. Put plainly: Amaranthus bioassay (betacyanin content). The settings on record: for Activity (%) [10^−5 mol · l^−1 K = 100%]: at the concentration with highest activity, relative to 10^−5 M kinetin. In kind it is cell-based, Amaranthus caudatus var. atropurpurea. As to the method:
The standard Amaranthus bioassay was performed with the following modifications. The seeds of Amaranthus caudatus var. atropurpurea were surface-sterilised in 10% (w/v) N-chlorobenzenesulfonamide for 10 min and washed 5 times with deionized water. They were placed in 15 cm Petri dishes containing paper tissues saturated with deionized water. After 72 h of cultivation at 25° C. in darkness, the roots of the seedlings were cut off. The explants, consisting of two cotyledons and hypocotyls, were placed in 5 cm Petri dishes onto two layers of filtration paper soaked with 1 ml of the incubation medium containing 10 μmol of Na2HPO4—KH2PO4, pH 6.8, 5 μmol of tyrosine and the compound to be tested. There were 20 explants per dish. The procedure was carried out under green safe light in a darkroom. After 48 h of incubation at 25° C. in darkness, betacyanin was extracted by freezing the explants in 4 ml 3.33 μM acetic acid. The concentration of betacyanin was determined from the absorbances at 537 nm and 620 nm as follows: ΔA=A537nm−A620nm. The values ΔA were plotted against the concentration tested, are means of five replicates and the entire test was repeated at least twice. […] The compounds to be tested were dissolved in dimethylsulfoxide (DMSO) and the solution brought up to 10^−3M with distilled water.
From the obtained data, the concentration with the highest activity was selected for each compound tested. Relative activity of the compound at this concentration was calculated (Tab. 12). The activity obtained for 10^−5 M kinetin (K) was postulated as 100%.

Test [2] has as its system osteosarcoma cell line HOS. Put plainly: Calcein AM cytotoxicity assay. In kind it is cell-based, human. The note with it: 72 hours. An excerpt:
(§1) Absence of toxic effects against mammalian (especially human) cell lines in a wide concentration range is one of the requirements on compounds intended for use in agriculture and medicine. Because toxic compounds negatively influence metabolic processes in cells, many standard cytotoxicity assays are based on measurement of metabolisation rate of various artificial substrates. Resulting product is then quantified e.g. by means of spectrometry. The assays can be easily modified for use in 96-well plates. For evaluation of cytotoxic effect of compounds of this invention, a microtiter assay based on quantification of metabolisation of Calcein AM was used. The assay is widely used in drug screening programs and in chemosensitivity testing. In live cells, Calcein AM is enzymatically hydrolysed and accumulation of resulting calcein is manifested by green fluorescence.
Following human cell lines were used for routine screening of the compounds: T-lymphoblastic leukemia cell line CEM, promyelocytic leukemia cell line HL-60, erytroid leukemia cell line K-562, breast carcinoma cell line MCF-7, osteosarcoma cell line HOS and melanoma cell line G-361. Mouse cell lines B16-F10 (melanoma) and NIH-3T3 (fibroblasts) were used as well. The cells were maintained in Nunc/Corning 80 cm^2 plastic tissue culture flasks and cultured in cell culture medium (DMEM with 5 g/l glucose, 2 mM glutamine, 100 U/ml penicillin, 100 μg/ml streptomycin, 10% fetal calf serum and sodium bicarbonate).
(§2) The cell suspensions were prepared and diluted according to the particular cell type and the expected target cell density (2.500-30.000 cells per well based on cell growth characteristics) and pippetted (80 μl) into 96-well plates. Inoculates were allowed a pre-incubation period of 24 hours at 37° C. and 5% CO2 for stabilisation. Tested compound was added in total volume of 20 μl of water at time zero. Usually, test compound was evaluated at six 3-fold dilutions. In routine testing, the highest concentration tested was 166.6 μM. All drug concentrations were tested in triplicates. Incubations of cells with the test compounds lasted for 72 hours at 37° C., in 5% CO2 atmosphere and 100% humidity. At the end of incubation period Calcein AM in PBS was added into final concentration of 1 μg/ml. After another 1 hour of incubation fluorescence (FD) was measured with the Labsystem FIA Reader Fluoroscan Ascent (UK). Growth inhibition (GI) was estimated using the following equitation: GI=(mean FDdrug exposed wells−mean FDblank)/(mean FDcontrol wells−mean FDblank)×100%. The GI50 value, the drug concentration causing 50% reduction of Calcein AM conversion, was calculated from the obtained dose response curves.

The target in a further test is T1, AHK3 (Arabidopsis thaliana, UniProt Q9C5U1).
T1 sequence (Q9C5U1 1-1036): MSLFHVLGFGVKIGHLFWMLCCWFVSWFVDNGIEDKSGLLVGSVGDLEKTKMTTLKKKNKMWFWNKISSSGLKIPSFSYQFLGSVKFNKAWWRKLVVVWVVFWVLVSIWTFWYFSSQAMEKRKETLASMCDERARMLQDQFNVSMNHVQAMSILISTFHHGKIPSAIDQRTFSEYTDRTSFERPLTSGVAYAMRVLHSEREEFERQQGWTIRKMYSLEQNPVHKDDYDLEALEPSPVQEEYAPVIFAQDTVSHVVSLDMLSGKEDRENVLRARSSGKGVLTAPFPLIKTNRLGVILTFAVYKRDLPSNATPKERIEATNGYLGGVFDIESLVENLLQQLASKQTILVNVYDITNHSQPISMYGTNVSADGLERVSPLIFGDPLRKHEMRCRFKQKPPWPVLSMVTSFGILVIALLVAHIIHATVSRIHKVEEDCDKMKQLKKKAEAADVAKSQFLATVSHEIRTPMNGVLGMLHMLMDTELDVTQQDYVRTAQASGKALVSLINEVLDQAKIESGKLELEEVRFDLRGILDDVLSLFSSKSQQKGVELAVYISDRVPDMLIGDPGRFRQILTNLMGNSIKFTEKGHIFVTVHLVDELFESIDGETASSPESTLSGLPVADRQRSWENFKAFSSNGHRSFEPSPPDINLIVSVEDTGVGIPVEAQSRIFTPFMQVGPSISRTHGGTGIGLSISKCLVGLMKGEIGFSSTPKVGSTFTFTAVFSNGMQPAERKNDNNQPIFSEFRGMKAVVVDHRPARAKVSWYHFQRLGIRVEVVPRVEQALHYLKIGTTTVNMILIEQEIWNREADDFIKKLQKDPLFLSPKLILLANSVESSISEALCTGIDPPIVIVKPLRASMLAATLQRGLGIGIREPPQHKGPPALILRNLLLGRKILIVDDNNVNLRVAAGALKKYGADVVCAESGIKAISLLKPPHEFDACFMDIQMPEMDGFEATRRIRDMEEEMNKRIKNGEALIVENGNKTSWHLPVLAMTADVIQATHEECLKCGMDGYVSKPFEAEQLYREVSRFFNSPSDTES
Description: Activation of cytokinin receptors (E. coli KMI001 beta-galactosidase reporter). In kind it is cell-based. The settings on record: 28 h incubation; n.a. means no activation. The method, then: Escherichia coli strains KMI001 harbouring the plasmid […]4 or […]3 were grown overnight at 25° C. in M9 media enriched with 0.1% casamino acids to OD600 1. The preculture was diluted 1:600 in 1 ml M9 medium containing 0.1% casamino acids and 1 μl stock solution of either the tested compound (10^-7 M-5×10^-5 M) or solvent control (DMSO, ethanol, methanol) were added. The cultures were further grown at 25° C. in microtiter plate, 200 μl per well. […] The cultures were centrifuged and 50 μl aliquots of the supernatant were transferred to microtiter plate containing 2 μl 150 mM 4-methyl umbelliferyl galactoside which was subsequently incubated for 1 h at 37° C. The reaction was stopped by adding 100 μl 0.2 M Na2CO3. […] The EC50 value, the compound concentration activating the receptor to 50%, was calculated from the obtained dose response curves. The values shown in Table 10 are means of three replicates and the entire test was repeated at least twice.

Test [3] deals with breast carcinoma cell line MCF-7. Put plainly: Calcein AM cytotoxicity assay. It counts as cell-based, human.
Description: as §1
(§3) Mouse cell lines B16-F10 (melanoma) and NIH-3T3 (fibroblasts) were used as well. The cells were maintained in Nunc/Corning 80 cm^2 plastic tissue culture flasks and cultured in cell culture medium (DMEM with 5 g/l glucose, 2 mM glutamine, 100 U/ml penicillin, 100 μg/ml streptomycin, 10% fetal calf serum and sodium bicarbonate).
as §2, with “In routine testing, the highest concentration tested was 166.6 μM.” left out, “FDblank)×100%.” for “FDblank)×100%. The GI50 value, the drug concentration causing 50% reduction of Calcein AM conversion, was calculated from the obtained dose response curves.”

The next test concerns NIH-3T3 (fibroblasts). Put plainly: Calcein AM cytotoxicity assay. In kind it is cell-based, Mouse.
Description: as §1, §3
as §2, with “In routine testing, the highest concentration tested was 166.6 μM.” left out, “FDblank)×100%.” for “FDblank)×100%. The GI50 value, the drug concentration causing 50% reduction of Calcein AM conversion, was calculated from the obtained dose response curves.”

Test [4] concerns cytokinin-dependent tobacco callus Nicotiana tabacum L. cv. Wisconsin 38. Description: Tobacco callus biotest (plant cell division). It counts as cell-based. As to the method: The stimulatory effect of the newly prepared derivatives was tested in the calus biotest using cytokinin-dependent tobacco callus. Cytokinin-dependent tobacco callus Nicotiana tabacum L. cv. Wisconsin 38 was maintained at 25° C. in darkness on modified Murashige-Skoog medium, containing per 1 liter: 4 μmol of nicotinic acid, 2.4 μmol of pyridoxine hydrochloride, 1.2 μmol of thiamine, 26.6 μmol of glycine, 1.37 μmol of glutamine, 1.8 μmol of myo-inositol, 30 g of sucrose, 8 g of agar, 5.37 μmol of NAA and 0.5 μmol of 6-benzylaminopurine. Subcultivation was carried out every three weeks. Fourteen days before the bioassay, the callus tissue was transferred to the media without 6-benzylaminopurine. The biological activity was determined from the increase of the fresh callus weight after four weeks of cultivation. Five replicates were prepared for each concentration of the compound tested and the entire test was repeated twice. […] The compounds to be tested were dissolved in dimethylsulfoxide (DMSO) and the solution brought up to 10^−3 M with distilled water.
From the obtained data, the concentration with the highest activity was selected for each compound tested. Relative activity of the compound at this concentration was calculated (Table 11). The activity obtained for 10^−5 M of the control substance kinetin (K) was postulated as 100%.

Molecules are shown by their SMILES. pEC50: −log10 of the molar value. Where two headings read alike, the source gives them in different places. Where only a bound is given, the exact number is not on record here.

As usually defined, the GI50 is the concentration that inhibits growth by half. By pEC50 is commonly meant the EC50 on a negative log10 scale, so that one unit is a factor of ten. Lower therefore signals a high EC50.

On to `Nc1nc(Nc2ccccc2)c2nc[nH]c2n1` [Compound 64], for which, in test [1], the “Activity (%) [10^−5 mol · l^−1 K = 100%]” value amounted to 125.2%. The concentration for 50% growth inhibition (GI50) in test [2] (Homo sapiens) is > 167 µM; in test [3] (Homo sapiens, MCF7, 72 hours), > 167 µM; in the test on NIH-3T3 (fibroblasts) (Mus musculus, NIH3T3, 72 hours), > 167 µM. At AHK3, this compound showed a negative-log EC50 (pEC50) of 4.60.
Take `Sc1nc(Nc2ccccc2)c2nc[nH]c2n1` [Compound 78, 2-Thio-6-anilinopurine]: the concentration for 50% growth inhibition (GI50) in test [2] was > 167 µM; in test [3] (72 hours, read-out: GI50 MCF7), > 167 µM; with NIH-3T3 (fibroblasts) (72 hours) it was > 167 µM.
For the compound `COc1ccccc1Nc1nc(S)nc2nc[nH]c12` [Compound 87], the 50% growth inhibitory concentration (GI50) in test [2] was > 167 µM; in test [3] (72 hours, read-out: GI50 MCF7), > 167 µM; with NIH-3T3 (fibroblasts) (72 hours), > 167 µM.
On to `CSc1nc(Nc2ccccc2)c2[nH]cnc2n1` [Compound 94, 2-Methylthio-6-anilinopurine], for which the GI50 in test [2] (Homo sapiens) was > 167 µM; in test [3] (Homo sapiens, MCF7, 72 hours), > 167 µM; in the test on NIH-3T3 (fibroblasts) (Mus musculus, NIH3T3, 72 hours) it was > 167 µM.
As to `CSc1nc(Nc2cccc(O)c2)c2nc[nH]c2n1` [Compound 101], the concentration for 50% growth inhibition (GI50) in test [2] is > 167 µM; in test [3] (72 hours, read-out: GI50 MCF7), > 167 µM; in the test on NIH-3T3 (fibroblasts) (72 hours) it was > 167 µM.
For the compound `COc1cccc(Nc2nc(SC)nc3[nH]cnc23)c1` [Compound 103], the “concentration with highest activity” value in test [1] (48 h) and in test [4] (fresh weight after four weeks) was 10^−5 mol · l^−1 throughout. Also, the “Activity (%) [10^−5 mol · l^−1 K = 100%]” value in test [1] came out at 156.4%; in test [4] (at the concentration with highest activity, relative to 10^−5 M kinetin), 142.8%. Further, the GI50 in test [2] is > 167 µM; in test [3] (72 hours, read-out: GI50 MCF7), > 167 µM; in the test with NIH-3T3 (fibroblasts) (72 hours), > 167 µM.
As for `Cc1nc(Nc2cccc(O)c2)c2nc[nH]c2n1` [Compound 116], the 50% growth inhibitory concentration (GI50) is > 167 µM in test [2]; > 167 µM in test [3] (72 hours, read-out: GI50 MCF7); > 167 µM in the test on NIH-3T3 (fibroblasts) (72 hours).
